Assay results from ChEMBL document CHEMBL3870304 (Eur J Med Chem, 2016).

What was measured:
cells [1] = details: Homo sapiens, KARPAS-299, 72 h
Description: Cytotoxicity against human KARPAS299 cells harboring NPM-ALK assessed as reduction in cell proliferation after 72 hrs by MTT assay

cells [2] = details: Homo sapiens, HT-29, 72 h
Description: Cytotoxicity against human HT-29 cells assessed as reduction in cell proliferation after 72 hrs by MTT assay

cells [3] = details: Homo sapiens, NCI-H460, 72 h
Description: Cytotoxicity against human NCI-H460 cells assessed as reduction in cell proliferation after 72 hrs by MTT assay

cells [4] = details: Homo sapiens, A549, 72 h
Description: Cytotoxicity against human A549 cells assessed as reduction in cell proliferation after 72 hrs by MTT assay

cells [5] = details: Homo sapiens, HCC78, 72 h
Description: Cytotoxicity against human HCC78 cells harboring SLC34A2-ROS1 assessed as reduction in cell proliferation after 72 hrs by MTT assay

[6] = molecular target: T1, ALK tyrosine kinase receptor (Homo sapiens, UniProt Q9UM73)
Description: Inhibition of ALK (unknown origin) using peptide as substrate after 60 mins by HTRF assay

[7] = molecular target: Proto-oncogene tyrosine-protein kinase ROS (Homo sapiens, UniProt P08922)
Chain of Proto-oncogene tyrosine-protein kinase ROS (P08922 whole entry): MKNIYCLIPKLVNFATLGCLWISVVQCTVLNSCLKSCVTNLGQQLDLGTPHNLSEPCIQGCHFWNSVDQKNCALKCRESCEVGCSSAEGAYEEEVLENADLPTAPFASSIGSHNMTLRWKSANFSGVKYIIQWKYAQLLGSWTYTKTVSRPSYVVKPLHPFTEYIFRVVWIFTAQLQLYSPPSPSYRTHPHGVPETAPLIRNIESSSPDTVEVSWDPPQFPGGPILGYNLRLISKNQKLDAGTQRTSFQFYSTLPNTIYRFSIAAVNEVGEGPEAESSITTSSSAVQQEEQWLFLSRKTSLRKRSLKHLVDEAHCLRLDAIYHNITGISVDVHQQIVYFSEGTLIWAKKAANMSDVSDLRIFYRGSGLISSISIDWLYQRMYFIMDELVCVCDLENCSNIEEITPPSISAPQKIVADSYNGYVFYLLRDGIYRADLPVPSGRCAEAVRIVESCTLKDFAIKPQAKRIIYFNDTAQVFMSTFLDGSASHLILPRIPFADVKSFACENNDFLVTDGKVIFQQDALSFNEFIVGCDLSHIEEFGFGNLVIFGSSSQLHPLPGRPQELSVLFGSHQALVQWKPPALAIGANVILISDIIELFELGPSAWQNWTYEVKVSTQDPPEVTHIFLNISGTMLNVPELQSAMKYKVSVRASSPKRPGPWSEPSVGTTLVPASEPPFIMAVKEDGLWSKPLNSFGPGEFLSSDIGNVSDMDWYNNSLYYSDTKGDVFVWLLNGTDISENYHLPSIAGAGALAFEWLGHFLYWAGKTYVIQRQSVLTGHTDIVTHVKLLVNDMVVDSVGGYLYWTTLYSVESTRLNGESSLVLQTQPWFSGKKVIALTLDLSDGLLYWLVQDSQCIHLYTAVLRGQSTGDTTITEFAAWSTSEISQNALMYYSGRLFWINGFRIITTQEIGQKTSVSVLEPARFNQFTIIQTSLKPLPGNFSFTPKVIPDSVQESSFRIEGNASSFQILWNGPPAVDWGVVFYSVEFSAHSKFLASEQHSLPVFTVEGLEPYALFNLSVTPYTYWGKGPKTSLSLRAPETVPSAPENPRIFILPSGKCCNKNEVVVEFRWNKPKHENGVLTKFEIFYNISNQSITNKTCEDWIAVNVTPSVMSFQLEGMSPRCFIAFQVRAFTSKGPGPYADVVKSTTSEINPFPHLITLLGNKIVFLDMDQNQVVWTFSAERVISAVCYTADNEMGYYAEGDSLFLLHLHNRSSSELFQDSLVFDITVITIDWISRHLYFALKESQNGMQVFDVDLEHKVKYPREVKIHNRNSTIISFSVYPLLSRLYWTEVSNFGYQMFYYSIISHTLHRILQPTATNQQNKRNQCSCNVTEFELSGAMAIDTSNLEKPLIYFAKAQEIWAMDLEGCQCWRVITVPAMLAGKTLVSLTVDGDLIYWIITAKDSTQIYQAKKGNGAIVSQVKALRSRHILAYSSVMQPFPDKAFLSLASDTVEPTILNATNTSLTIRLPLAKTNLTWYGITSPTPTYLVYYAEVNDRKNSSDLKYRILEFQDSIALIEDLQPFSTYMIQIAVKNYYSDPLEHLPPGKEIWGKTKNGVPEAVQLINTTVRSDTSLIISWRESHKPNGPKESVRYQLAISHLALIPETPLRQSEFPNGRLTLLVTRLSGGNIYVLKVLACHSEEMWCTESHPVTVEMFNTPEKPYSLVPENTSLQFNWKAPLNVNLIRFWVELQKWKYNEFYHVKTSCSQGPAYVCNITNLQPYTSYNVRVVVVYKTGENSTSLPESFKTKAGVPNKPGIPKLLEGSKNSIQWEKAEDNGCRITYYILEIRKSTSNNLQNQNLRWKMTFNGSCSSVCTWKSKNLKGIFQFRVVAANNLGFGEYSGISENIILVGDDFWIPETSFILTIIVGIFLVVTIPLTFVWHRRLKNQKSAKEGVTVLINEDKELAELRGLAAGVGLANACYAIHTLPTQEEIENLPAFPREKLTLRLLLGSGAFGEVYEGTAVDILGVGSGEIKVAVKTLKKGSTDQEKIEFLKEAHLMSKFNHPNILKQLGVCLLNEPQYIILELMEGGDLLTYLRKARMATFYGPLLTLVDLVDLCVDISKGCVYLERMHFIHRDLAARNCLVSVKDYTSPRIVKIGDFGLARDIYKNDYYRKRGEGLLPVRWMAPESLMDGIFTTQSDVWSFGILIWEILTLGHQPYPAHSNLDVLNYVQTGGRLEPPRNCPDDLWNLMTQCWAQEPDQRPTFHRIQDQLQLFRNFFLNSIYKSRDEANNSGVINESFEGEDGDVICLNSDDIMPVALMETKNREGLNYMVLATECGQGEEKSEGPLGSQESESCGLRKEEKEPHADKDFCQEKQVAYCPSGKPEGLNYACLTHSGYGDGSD
Description: Inhibition of ROS1 (unknown origin) using peptide as substrate after 60 mins by HTRF assay

[8] = test system: ALK tyrosine kinase receptor (Homo sapiens), Q9UM73 [L1196M]; experiment: Potency index, ratio of crizotinib IC50 to compound IC50 for ALK L1196M mutant (unknown origin)
Chain of ALK tyrosine kinase receptor (Homo sapiens), Q9UM73 [L1196M] (Q9UM73 whole entry L1196M, looked up): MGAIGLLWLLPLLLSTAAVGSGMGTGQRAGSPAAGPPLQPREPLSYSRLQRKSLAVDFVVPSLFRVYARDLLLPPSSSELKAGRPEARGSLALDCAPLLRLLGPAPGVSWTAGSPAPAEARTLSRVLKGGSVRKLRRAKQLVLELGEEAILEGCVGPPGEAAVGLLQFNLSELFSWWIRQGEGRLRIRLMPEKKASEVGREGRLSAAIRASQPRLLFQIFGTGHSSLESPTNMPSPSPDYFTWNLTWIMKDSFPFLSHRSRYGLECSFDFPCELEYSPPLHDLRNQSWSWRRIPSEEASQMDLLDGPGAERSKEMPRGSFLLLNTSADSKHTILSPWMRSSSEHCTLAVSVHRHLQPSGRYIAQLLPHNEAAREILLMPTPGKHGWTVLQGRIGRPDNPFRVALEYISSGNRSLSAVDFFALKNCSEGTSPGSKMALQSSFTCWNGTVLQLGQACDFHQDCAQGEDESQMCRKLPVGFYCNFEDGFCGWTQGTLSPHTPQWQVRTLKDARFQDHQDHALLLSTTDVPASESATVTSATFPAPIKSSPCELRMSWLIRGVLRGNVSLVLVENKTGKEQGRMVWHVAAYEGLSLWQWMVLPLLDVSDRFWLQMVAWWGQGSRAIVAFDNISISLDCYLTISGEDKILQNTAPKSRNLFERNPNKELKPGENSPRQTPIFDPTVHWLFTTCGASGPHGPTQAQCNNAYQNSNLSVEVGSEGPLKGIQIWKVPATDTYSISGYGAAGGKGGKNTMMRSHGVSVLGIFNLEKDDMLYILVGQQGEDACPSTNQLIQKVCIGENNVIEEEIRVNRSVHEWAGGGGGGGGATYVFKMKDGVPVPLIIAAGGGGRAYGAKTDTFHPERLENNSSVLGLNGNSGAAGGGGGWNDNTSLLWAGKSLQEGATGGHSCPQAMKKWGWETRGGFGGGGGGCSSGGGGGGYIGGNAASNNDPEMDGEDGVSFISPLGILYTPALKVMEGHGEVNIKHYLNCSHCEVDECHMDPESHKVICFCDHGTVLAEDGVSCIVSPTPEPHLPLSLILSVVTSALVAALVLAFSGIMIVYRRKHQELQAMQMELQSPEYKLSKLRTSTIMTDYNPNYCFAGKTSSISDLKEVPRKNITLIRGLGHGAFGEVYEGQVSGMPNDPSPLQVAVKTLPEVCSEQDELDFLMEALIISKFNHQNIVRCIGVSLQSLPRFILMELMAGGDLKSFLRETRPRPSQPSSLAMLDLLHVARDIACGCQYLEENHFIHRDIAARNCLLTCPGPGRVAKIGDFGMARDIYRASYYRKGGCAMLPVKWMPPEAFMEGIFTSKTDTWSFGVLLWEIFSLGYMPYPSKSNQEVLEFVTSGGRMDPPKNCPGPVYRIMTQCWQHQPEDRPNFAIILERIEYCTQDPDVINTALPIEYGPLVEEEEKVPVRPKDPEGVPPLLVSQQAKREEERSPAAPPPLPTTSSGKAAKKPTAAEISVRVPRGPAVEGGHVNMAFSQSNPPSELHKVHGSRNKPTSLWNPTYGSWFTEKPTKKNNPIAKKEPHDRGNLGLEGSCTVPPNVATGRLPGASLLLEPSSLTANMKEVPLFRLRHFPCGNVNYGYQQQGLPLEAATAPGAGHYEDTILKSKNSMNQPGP

[9] = molecular target: Epidermal growth factor receptor (Homo sapiens, UniProt P00533)
Chain of Epidermal growth factor receptor (P00533 whole entry): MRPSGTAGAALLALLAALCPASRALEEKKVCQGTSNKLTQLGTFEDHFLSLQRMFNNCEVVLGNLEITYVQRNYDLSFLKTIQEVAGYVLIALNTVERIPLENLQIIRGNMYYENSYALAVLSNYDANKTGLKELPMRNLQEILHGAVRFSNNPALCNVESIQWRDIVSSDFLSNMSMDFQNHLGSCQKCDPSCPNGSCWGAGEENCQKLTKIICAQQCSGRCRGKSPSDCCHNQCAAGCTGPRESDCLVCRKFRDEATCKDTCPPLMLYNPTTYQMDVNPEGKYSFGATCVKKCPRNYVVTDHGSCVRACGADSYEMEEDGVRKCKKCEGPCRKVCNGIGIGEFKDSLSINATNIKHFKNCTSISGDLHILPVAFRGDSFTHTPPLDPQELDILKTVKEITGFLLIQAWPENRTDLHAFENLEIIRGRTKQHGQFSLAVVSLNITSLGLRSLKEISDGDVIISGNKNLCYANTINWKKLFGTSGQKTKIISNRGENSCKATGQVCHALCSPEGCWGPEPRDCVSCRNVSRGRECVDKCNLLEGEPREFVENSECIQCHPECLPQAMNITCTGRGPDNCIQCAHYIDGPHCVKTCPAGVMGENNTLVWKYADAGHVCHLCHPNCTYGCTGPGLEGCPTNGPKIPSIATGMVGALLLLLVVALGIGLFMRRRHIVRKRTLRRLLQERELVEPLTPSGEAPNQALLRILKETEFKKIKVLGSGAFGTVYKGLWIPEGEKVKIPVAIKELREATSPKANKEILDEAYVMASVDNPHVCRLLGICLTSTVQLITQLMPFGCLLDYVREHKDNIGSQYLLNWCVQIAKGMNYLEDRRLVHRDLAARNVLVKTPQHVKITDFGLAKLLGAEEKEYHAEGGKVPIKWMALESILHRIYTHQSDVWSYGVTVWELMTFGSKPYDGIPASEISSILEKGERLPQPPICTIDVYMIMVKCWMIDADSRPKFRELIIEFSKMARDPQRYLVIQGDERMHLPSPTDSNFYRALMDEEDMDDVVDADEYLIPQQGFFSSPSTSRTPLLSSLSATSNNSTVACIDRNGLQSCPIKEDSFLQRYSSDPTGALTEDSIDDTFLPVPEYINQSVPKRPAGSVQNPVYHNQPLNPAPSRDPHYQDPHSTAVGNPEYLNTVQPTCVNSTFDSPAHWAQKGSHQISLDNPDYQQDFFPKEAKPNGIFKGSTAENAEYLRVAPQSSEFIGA
Description: Inhibition of EGFR (unknown origin) using peptide as substrate after 60 mins by HTRF assay

[10] = molecular target: Hepatocyte growth factor receptor (Homo sapiens, UniProt P08581)
Description: Inhibition of c-Met (unknown origin) using peptide as substrate after 60 mins by HTRF assay

[11] = molecular target: ALK tyrosine kinase receptor (Homo sapiens, UniProt Q9UM73, L1196M)
HCC78 = experiment: Potency index, ratio of crizotinib IC50 to compound IC50 against human HCC78 cells harboring SLC34A2-ROS1; assay type: functional
[12] = molecular target: T1, ALK tyrosine kinase receptor; experiment: Potency index, ratio of crizotinib IC50 to compound IC50 for ALK (unknown origin)
KARPAS-299 = experiment: Potency index, ratio of crizotinib IC50 to compound IC50 against human KARPAS299 cells harboring NPM-ALK; assay type: functional

| Structure (SMILES) | IC50 (cells [1]) [nM] | IC50 (cells [2]) [nM] | IC50 (cells [3]) [nM] | IC50 (cells [4]) [nM] | IC50 (cells [5]) [nM] | IC50 [6] [nM] | IC50 [7] [nM] | Ratio IC50 [8] | IC50 [9] [nM] | IC50 [10] [nM] | IC50 [11] [nM] | Ratio IC50 (HCC78) | Ratio IC50 [12] | Ratio IC50 (KARPAS-299) |
| --- | --- | --- | --- | --- | --- | --- | --- | --- | --- | --- | --- | --- | --- | --- |
| CC(C)S(=O)(=O)c1ccccc1Nc1nc(N/N=C/c2ccc(Br)cc2)ncc1Cl | 1440 | 2300 | 3130 | 1310 | 950 | – | – | – | – | – | – | – | – | – |
| COc1ccc(/C=N/Nc2ncc(Cl)c(Nc3ccccc3S(=O)(=O)C(C)C)n2)cc1 | 28 | 1130 | 1320 | 580 | 20 | 4.8 | 2.3 | 20 | 587 | 157 | 82 | – | – | – |
| CC(C)S(=O)(=O)c1ccccc1Nc1nc(N/N=C/c2cccc(Br)c2)ncc1Cl | 1400 | 1030 | > 10000 | 1090 | 1200 | – | – | – | – | – | – | – | – | – |
| COc1cc(/C=N/Nc2ncc(Cl)c(Nc3ccccc3S(=O)(=O)C(C)C)n2)cc(OC)c1OC | 20 | 2150 | 1230 | 1150 | 19 | – | – | – | – | – | – | – | – | – |
| C/C(=N\Nc1ncc(Cl)c(Nc2ccccc2S(=O)(=O)C(C)C)n1)c1ccc(C)cc1 | 2230 | > 10000 | > 10000 | > 10000 | 2840 | – | – | – | – | – | – | – | – | – |
| CC(C)S(=O)(=O)c1ccccc1Nc1nc(N/N=C/c2ccco2)ncc1Cl | 750 | 3100 | 1030 | 1940 | 2520 | – | – | – | – | – | – | – | – | – |
| C/C(=N\Nc1ncc(Cl)c(Nc2ccccc2S(=O)(=O)C(C)C)n1)c1ccccc1F | 540 | > 10000 | 7150 | > 10000 | 600 | – | – | – | – | – | – | – | – | – |
| CC(C)S(=O)(=O)c1ccccc1Nc1nc(N/N=C/c2ccc(C#N)cc2)ncc1Cl | 340 | 2960 | 2830 | 2510 | 270 | – | – | – | – | – | – | – | – | – |
| COc1ccc(/C(C)=N/Nc2ncc(Cl)c(Nc3ccccc3S(=O)(=O)C(C)C)n2)cc1 | 34 | > 10000 | 2500 | 2120 | 31 | 4.9 | 4.7 | 20 | > 1000 | > 1000 | 80 | – | – | – |
| CSc1ccc(/C=N/Nc2ncc(Cl)c(Nc3ccccc3S(=O)(=O)C(C)C)n2)cc1 | 280 | 980 | 320 | 880 | 210 | – | – | – | – | – | – | – | – | – |
| CC(C)S(=O)(=O)c1ccccc1Nc1nc(N/N=C/c2ccc(Cl)cc2)ncc1Cl | 1320 | 8190 | 2900 | 2930 | 1700 | – | – | – | – | – | – | – | – | – |
| C/C(=N\Nc1ncc(Cl)c(Nc2ccccc2S(=O)(=O)C(C)C)n1)c1ccc(Br)cc1 | 2500 | > 10000 | > 10000 | 4840 | 2380 | – | – | – | – | – | – | – | – | – |
| C/C(=N\Nc1ncc(Cl)c(Nc2ccccc2S(=O)(=O)C(C)C)n1)c1ccc(F)cc1 | 20 | > 10000 | > 10000 | > 10000 | 28 | 2.5 | 2.7 | 20 | > 1000 | > 1000 | 67 | 11.1 | 9 | 2.4 |
| CC(C)S(=O)(=O)c1ccccc1Nc1nc(N/N=C/c2ccc(OC(F)(F)F)cc2)ncc1Cl | 30 | 1930 | 1200 | 980 | 31 | 5.5 | 5.5 | 20 | 898 | 393 | 79 | – | – | – |
| COc1ccccc1/C=N/Nc1ncc(Cl)c(Nc2ccccc2S(=O)(=O)C(C)C)n1 | 6930 | > 10000 | > 10000 | 7040 | 4160 | – | – | – | – | – | – | – | – | – |
| CC(C)S(=O)(=O)c1ccccc1Nc1nc(N/N=C/c2ccc(C(F)(F)F)cc2)ncc1Cl | 35 | 1120 | > 10000 | 940 | 82 | 3.6 | 3.4 | 20 | 593 | 380 | 73 | – | – | – |
| CC(C)S(=O)(=O)c1ccccc1Nc1nc(N/N=C/c2ccccc2Cl)ncc1Cl | 5620 | > 10000 | 7120 | 7900 | 6300 | – | – | – | – | – | – | – | – | – |

| Structure (SMILES) | IC50 (cells [1]) [nM] | IC50 (cells [2]) [nM] | IC50 (cells [3]) [nM] | IC50 (cells [4]) [nM] | IC50 (cells [5]) [nM] | IC50 [6] [nM] | IC50 [7] [nM] | Ratio IC50 [8] | IC50 [9] [nM] | IC50 [10] [nM] | IC50 [11] [nM] | Ratio IC50 (HCC78) | Ratio IC50 [12] | Ratio IC50 (KARPAS-299) |
| --- | --- | --- | --- | --- | --- | --- | --- | --- | --- | --- | --- | --- | --- | --- |
| CC(C)S(=O)(=O)c1ccccc1Nc1nc(N/N=C/c2ccncc2)ncc1Cl | 870 | 980 | 1130 | 1420 | 820 | – | – | – | – | – | – | – | – | – |
| CC(C)S(=O)(=O)c1ccccc1Nc1nc(N/N=C/c2cccnc2)ncc1Cl | 930 | 830 | 1530 | 1150 | 970 | – | – | – | – | – | – | – | – | – |
| CC(C)S(=O)(=O)c1ccccc1Nc1nc(N/N=C/c2ccc(F)cc2)ncc1Cl | 16 | 1760 | 1300 | 1400 | 19 | 2.3 | 1.8 | 20 | 570 | 220 | 45 | – | 9 | – |
| C/C(=N\Nc1ncc(Cl)c(Nc2ccccc2S(=O)(=O)C(C)C)n1)c1ccc(F)cc1F | 440 | 2120 | > 10000 | 1650 | 670 | – | – | – | – | – | – | – | – | – |
| CC(C)S(=O)(=O)c1ccccc1Nc1nc(N/N=C/c2ccccc2F)ncc1Cl | 450 | 1420 | 1230 | > 10000 | 360 | – | – | – | – | – | – | – | – | – |
| CC(C)S(=O)(=O)c1ccccc1Nc1nc(N/N=C/c2cccs2)ncc1Cl | 910 | 880 | 570 | 470 | 880 | – | – | – | – | – | – | – | – | – |
| CC(C)S(=O)(=O)c1ccccc1Nc1nc(N/N=C/c2ccccc2)ncc1Cl | 250 | 1320 | 1480 | 1230 | 470 | – | – | – | – | – | – | – | – | – |
| CC(C)S(=O)(=O)c1ccccc1Nc1nc(N/N=C/c2cccc(C(F)(F)F)c2)ncc1Cl | 65 | 5500 | > 10000 | 3340 | 80 | 5.5 | 5 | 20 | 460 | 479 | 69 | – | – | – |
| Cc1cc(Nc2ncc(Cl)c(Nc3ccccc3S(=O)(=O)C(C)C)n2)c(OC(C)C)cc1C1CCNCC1 [CERITINIB] | 27 | > 10000 | > 10000 | > 10000 | 18 | – | – | – | – | – | – | – | – | – |
| Cc1ccc(/C=N/Nc2ncc(Cl)c(Nc3ccccc3S(=O)(=O)C(C)C)n2)cc1 | 1620 | > 10000 | 1650 | 4420 | 1730 | – | – | – | – | – | – | – | – | – |
| CC(C)S(=O)(=O)c1ccccc1Nc1nc(N/N=C/c2ccc(F)cc2F)ncc1Cl | 100 | > 10000 | 3360 | 2280 | 110 | – | – | – | – | – | – | – | – | – |
| CC(C)S(=O)(=O)c1ccccc1Nc1nc(N/N=C/c2ccc([N+](=O)[O-])cc2)ncc1Cl | 2970 | 1720 | > 10000 | 9250 | 1980 | – | – | – | – | – | – | – | – | – |
| COc1cccc(/C=N/Nc2ncc(Cl)c(Nc3ccccc3S(=O)(=O)C(C)C)n2)c1 | 22 | 5570 | 2230 | 1250 | 44 | 6.2 | 5.8 | 20 | 601 | 376 | 86 | – | – | – |
| C/C(=N\Nc1ncc(Cl)c(Nc2ccccc2S(=O)(=O)C(C)C)n1)c1ccc(C#N)cc1 | 270 | > 10000 | 6840 | > 10000 | 310 | – | – | – | – | – | – | – | – | – |
| CSc1ccc(/C(C)=N/Nc2ncc(Cl)c(Nc3ccccc3S(=O)(=O)C(C)C)n2)cc1 | 490 | 5430 | > 10000 | > 10000 | 850 | – | – | – | – | – | – | – | – | – |
| CC(C)S(=O)(=O)c1ccccc1Nc1nc(N/N=C/c2ccc(S(C)(=O)=O)cc2)ncc1Cl | 240 | 1100 | 2020 | 1330 | 310 | – | – | – | – | – | – | – | – | – |
